Experimental data reported in patent US9937194B1, “Compounds and methods for treating inflammatory diseases” (priority 2009, dated 2018).
Where two headings read alike, the source gives them in different places. Values belong to the compound of their own block, whether it stands above or below them.

How the values were obtained:
[1] = system: HDAC activity; experiment: H2O2-induced reduction of HDAC activity in PMA-differentiated U937 cells; format: cell-based, human; settings: for restoration of H2O2-reduced HDAC activity (%): test concentration not given, bracketed second value not explained; for HDAC activity reached compared with untreated controls: H2O2 200 μM, comparators at highest doses tested
Description: In cell HDAC assay. Cells are incubated with Fluor de Lys™ substrate for 1 hr before lyses. Total HDAC activity from whole cell extracts is measured using the HDAC Fluorimetric Assay/Drug Discovery Kit (BIOMOL® International, Inc., Plymouth Meeting, Pa.).
HDAC expression: In cell HDAC activity assay: U937 is differentiated to macrophage type cells by PMA for 3 days. HDAC fluorescent substrate (Biomol) is added before exposure of oxidative stress (H2O2, 200 μM) or Tobacco smoke conditioned medium for 4 hrs. HDAC activity is measured (Biomol kit). Compounds at different concentrations are treated 20 min before oxidative stress treatment.
PMA-differentiated macrophage-like cells are pretreated with compounds described herein for 20 min. After H2O2 (200 μM) stimulation for 4 hrs, HDAC activity is assayed. Data are expressed as fold changes against positive control treated with H2O2 only. Values represent means of four experiments±SEM.

[2] = system: IL-8; experiment: LPS-induced IL-8 release in PMA-differentiated U937 cells (ELISA); format: cell-based, human; settings: for IL-8 inhibition (%): test concentration not given; for IC50: LPS-induced IL-8 release, PMA-differentiated U937, NA = inactive
Description: (§1) Cytokine ELISA. LPS-induced IL-8, TNFα concentrations and TNFα-induced IL-8 concentrations are determined by sandwich ELISA according to the manufacturer's instructions (R&D Systems Europe). IC50 values for dexamethasone on IL-8 production are calculated using the computer program Prism 4.0 (GraphPad Software Inc., San Diego, Calif.) as a marker for steroid sensitivity.
(§2) Effects of compounds on LPS-induced IL-8 and TNFα release in PMA-differentiated U937 cells. PMA-differentiated macrophage-like cells are pretreated with compounds described herein for 1 hr, followed by LPS (100 ng/ml) stimulation for 4 hrs. LPS-induced IL-8 and TNFα release is evaluated by ELISA. Values represent means of three experiments±SEM.

[3] = system: TNFα; experiment: LPS-induced TNFα release in PMA-differentiated U937 cells (ELISA); format: cell-based, human; settings: for TNFα inhibition (%): test concentration not given; for IC50: LPS-induced TNFα release, PMA-differentiated U937, NA = inactive
Description: as §1, §2

[4] = system: MMP9; experiment: PMA-induced MMP9 expression in U937 cells (gelatin zymography); format: cell-based, human; settings: for MMP9 inhibition (%): test concentration not given, bracketed second value not explained
Description: Zymography. MMP9 enzyme activity is measured by gelatin zymography. 5 μl of supernatants were diluted with 5 μl Laemli sample buffer (Bio-Rad) and are loaded on a Novex® 10% Zymogram (Gelatin) gel (Invitrogen). After electrophoresis (90 min, 125 V, 35 mA, 5 W) gels are incubated with 1× Novex® zymogram renaturing buffer (Invitrogen) for 30 min at room temperature with gentle agitation. Gels are then rinsed in 1× Novex® zymogram developing buffer (Invitrogen) for 30 min at room temperature with gentle agitation prior to overnight incubation in the developing buffer at 37° C. After incubation the gels are stained using the colloidal blue staining kit (Invitrogen) with buffer containing 20% methanol and 70% distilled water to visualize the zymogen bands. Relevant band intensities are quantified by densitometric analysis using the UVP GelDoc-It system.
Effects of compounds on PMA-induced MMP9 expression in U937 cells. U937 cells are pretreated with compounds described herein for 1 hr, followed by PMA (50 ng/ml) treatment for 48 hrs. After 48 hrs supernatants are collected for zymography. MMP9 enzyme activity is measured by gelatin zymography. Data are expressed as fold changes against positive control treated with PMA only. Values represent means of three experiments±SEM.

[5] = format: cell-based
Description: The human monocytic cell line U937 and the human type II alveolar epithelial carcinoma cell line A549 were obtained from the American Type Culture Collection (ATCC, Rockville, Md.). PBMCs from COPD patients were obtained in Brompton hospital and separated by AccuSPIN (Sigma-Aldrich, Poole, UK). Cells were cultured in complete growth medium (Sigma-Aldrich) (RPMI 1640 for U937, PBMCs, and Dulbecco's modified essential medium (DMEM) for A549) supplemented with 10% fetal bovine serum (FBS) and 1% L-glutamine at 37° C. in a humidified atmosphere with 5% CO2. U937 were differentiated into an adherent macrophage-like morphology by exposure to PMA (50 or 100 ng/ml) for 48 hrs in complete growth medium. Cell viability was assessed microscopically by trypan blue staining. Cell toxicity was determined by MTT assay as needed. This study was approved by the ethics committee of the Royal Brompton Hospitals, and all subjects gave written informed consent.

[6] = system: K. pneumonia 13883; experiment: MIC; format: cell-based; settings: in µg/mL
[7] = system: H. influenzae ATCC 49247; experiment: MIC; format: cell-based
[8] = system: H. influenzae LC002; experiment: MIC; format: cell-based
[9] = system: S. pneumoniae ATCC 49619; experiment: MIC; format: cell-based
[10] = system: S. aureus ATCC 29213 (MSSA) MLS-S; experiment: MIC; format: cell-based
[11] = system: S. aureus MRSA 33591; experiment: MIC; format: cell-based
[12] = system: E. faecium ATCC 19434; experiment: MIC; format: cell-based
[13] = system: Akt; experiment: H2O2-induced phosphorylation of Akt in PMA-differentiated U937 cells (western blot); format: cell-based, human
Description: Cell Lysis and Western Blotting. Whole cell protein extracts are prepared using modified RIPA buffer (50 mM Tris HCL pH 7.4, 0.5% NP-40, 0.25% Na-deoxycholate, 150 mM NaCl with freshly added complete protease (Roche). Phosphatase inhibitor (Active Motif) is also added when required. Protein concentration is determined using the Bio-Rad Protein Assay (Bio-Rad). Proteins are separated by SDS-PAGE under denaturing conditions, and electrotransferred to a nitrocellulose membrane (Amersham Biosciences, Amersham, U.K.) (Western blotting). The membranes are blocked in TBS containing 0.05% Tween 20 and 5% non-fat dried milk, and then incubated with anti-pAkt or Akt antibody followed by an horse radish peroxidase-conjugated secondary antibody (Dako UK Ltd., Ely, UK). Bound antibodies are visualized by ECL Plus (GE Healthcare UK Ltd., Little Chalfont, UK). The band density is calculated by densitometry (UVP Bioimaging Systems, Cambridge, UK) using Labworks software (Ultra-Violet Products, Cambridge, UK).
Effects of compounds on H2O2-induced phosphorylation of Akt in PMA-differentiated U937 cells. PMA-differentiated macrophage-like cells are pretreated with compounds described herein for 20 min. After H2O2 (1 mM) stimulation for 30 min, cells are lysed. Phosphorylation levels of Akt are measured by western blot. Data are calculated relative to total protein, and expressed as fold changes against positive control treated with H2O2 only. Values represent means of three or four experiments±SEM.

[14] = system: U937 cells; experiment: H2O2-induced steroid insensitivity in U937 cells (dexamethasone IC50 on TNFα-induced IL-8); format: cell-based, human; settings: highest concentration tested (100 μM); H2O2 200 μM
Description: as §1
Restoration of steroid sensitivity. U937 cells: U937 are treated with oxidative stress (H2O2, 200 μM or 0.15 dilution CSM (cigarette smoke conditioned medium)) and 4 hours later, stimulated with TNFα (10 ng/ml) in the presence of dexamethasone (10^−11-10^−6M). Supernatant and cells are collected 24 hrs after stimulation and IL-8 is measured by conventional ELISA. As the index of corticosteroid sensitivity, IC50 of dexamethasone is calculated. Test compounds are treated 20 min before oxidative stress treatment.
Effects of compounds on H2O2-induced steroid insensitivity in U937 cells. Cells stimulated with H2O2 (200 μM) overnight are incubated with compounds described herein for 30 min under H2O2 (200 μM) exposure. The cells are treated with dexamethasone (10^−11 to 10^−6 M) for 20 min, followed by the TNFα stimulation overnight. TNFα-induced IL-8 release is evaluated by ELISA and IC50 values for dexamethasone on IL-8 production are calculated using Prism. Data are expressed as fold changes against positive control treated with H2O2 only. Values represent means of four experiments±SEM. H2O2 exposure reduces dexamethasone sensitivity by approximately 4 fold based on calculated IC50 values of TNFα-induced IL-8 production.

[15] = system: HDAC2 mRNA; experiment: Cigarette smoke extract-induced reduction of HDAC2 mRNA in A549 cells; format: cell-based, human
Description: Preparations of cigarette smoke extract. To prepare the cigarette smoke extract, two full-strength Marlboro cigarettes (filters removed; Phillip Morris USA, Richmond, Va.) are combusted through a modified 60-ml syringe apparatus, and the smoke passed through 20 ml of DMEM medium. Each cigarette generally yields five draws of the syringe (to the 60-ml mark), with each individual draw taking approximately 10 s to complete. Cigarette smoke extract is then passed through a 0.20-μm filter to sterilize and remove particulate matter and is used immediately unless otherwise stated.
Quantitative RT-PCR. Total RNA extraction and reverse transcription are performed using an RNeasy kit (QIAGEN, Crawley, UK) and a High-Capacity cDNA Reverse Transcription Kits (Applied Biosystems, Foster City, Calif.). Gene transcript level of HDAC2 (HS00231032_M1, Applied Biosystems, California, USA) and the house-keeping gene, guanine nucleotide binding protein beta polypeptide-2-like 1 (GNB2L1) (HS00272002_M1, Applied Biosystems) are quantified by real-time PCR using a TaqMan® Gene Expression Master Mix (Applied Biosystems) on a Rotor-Gene 6000 (Corbett Research, Cambridge, UK). Transcripts are analysed by the delta (D) CT method and variations in cDNA concentrations between different samples were corrected using GNB2L1.
Effects of macrolides on cigarette smoke extract-induced (CSE-induced) reduction of HDAC2 mRNA in A549 cells. Cells pretreated with compounds described herein for 30 min are exposed to CSE (0.15 O.D.) for 1 hr. The cells are washed twice and incubated with medium only for 4 hrs. Data are expressed as % reduction from baseline (left) or % increase from baseline under H2O2. Values represent means of three experiments±SEM. Example 33 reverses cigarette smoke extract-induced (CSE-induced) reduction of HDAC2 mRNA expression in A549 cells at concentrations of about 10 μM or greater, and with statistical significance of p<0.05 versus treatment with CSE only (one-way ANOVA with post hoc test, n=3) at doses of about 30 μM or greater.

SMILES: CC[C@H]1OC(=O)[C@H](C)C(=O)[C@H](C)[C@@H](O[C@H]2C[C@@H](N(C)C)[C@H](O)[C@@H](C)O2)[C@@](C)(OC)C[C@@H](C)C(=O)[C@H](C)[C@H]2N(CCCCn3cc(-c4ccccn4)nn3)C(=O)O[C@]12C [Example 21]
- restoration of H2O2-reduced HDAC activity (%) [1]: 36%
- IL-8 inhibition (%) [2]: 59%
- TNFα inhibition (%) [3]: 14%
- MMP9 inhibition (%) [4]: 49 (41) %
- Cell Toxicity (% cell death) ([5]; test concentration not given): 3%
- MIC K. pneumonia 13883 [6]: >64
- MIC H. influenzae ATCC 49247 [7]: > 64 µg/mL
- MIC H. influenzae LC002 [8]: > 64 µg/mL
- MIC S. pneumoniae ATCC 49619 [9]: > 64 µg/mL
- MIC S. aureus ATCC 29213 (MSSA) MLS-S [10]: > 64 µg/mL
- MIC S. aureus MRSA 33591 [11]: > 64 µg/mL
- MIC E. faecium ATCC 19434 [12]: > 64 µg/mL

- IC50 ([2]; Homo sapiens, U-937): 507 ± 44 µM
- IC50 ([3]; Homo sapiens, U-937): 426 ± 64 µM
SMILES: CC[C@H]1OC(=O)[C@H](C)[C@@H](O[C@H]2C[C@@](C)(OC)[C@@H](O)[C@H](C)O2)[C@H](C)[C@@H](O[C@@H]2O[C@H](C)C[C@H](N(C)C)[C@H]2O)[C@](C)(OC)C[C@@H](C)C(=O)[C@H](C)[C@@H](O)[C@]1(C)O [CLR, clarithromycin, reference compound]
- restoration of HDAC activity compared with Example 33 ([1]; PMA-differentiated U937, H2O2 200 μM 4 hrs): only at much higher doses than Example 33
- HDAC activity reached compared with untreated controls ([1]; PMA-differentiated U937): only restore HDAC activity to levels comparable to untreated controls
- restoration of H2O2-reduced HDAC activity (%) [1]: 14%
- inhibition of Akt phosphorylation compared with Example 33 ([13]; PMA-differentiated U937, H2O2 1 mM 30 min): only at much higher concentrations than Example 33
- inhibition of LPS-induced IL-8 release compared with Example 33 ([2]; LPS 100 ng/ml 4 hrs): at higher concentrations than Example 33
- IL-8 inhibition (%) [2]: 17%
- inhibition of LPS-induced TNFα release compared with Example 33 ([3]; LPS 100 ng/ml 4 hrs): at higher concentrations than Example 33
- TNFα inhibition (%) [3]: 21%
- MMP9 inhibition (%) [4]: 8 (22) %
- restoration of dexamethasone sensitivity [14]: None of ERY, CLR, or AZI restored dexamethasone sensitivity
- Cell Toxicity (% cell death) ([5]; human): −7%

SMILES: CCC1OC(=O)C(C)C(OC2CC(C)(OC)C(O)C(C)O2)C(C)C(OC2OC(C)CC(N(C)C)C2O)C(C)(O)CC(C)CN(C(C)=O)C(C)C2OC(=O)OC12C (centres unmarked) [Example 33]
- HDAC activity reached compared with untreated controls ([1]; PMA-differentiated U937): higher than untreated controls
- concentration at which the H2O2-induced reduction in HDAC activity is restored ([1]; PMA-differentiated U937, pretreated 20 min, H2O2 200 μM 4 hrs): ≥ 10 µM
- concentration at which restoration of HDAC activity is statistically significant ([1]; p<0.01 versus H2O2 only, n=4): ≥ 30 µM
- concentration at which CSE-induced reduction of HDAC2 mRNA expression is reversed ([15]; A549, pretreated 30 min, CSE 0.15 O.D. 1 hr): ≥ 10 µM
- concentration at which reversal of HDAC2 mRNA reduction is statistically significant ([15]; p<0.05 versus CSE only, n=3): ≥ 30 µM
- concentration at which inhibition of Akt phosphorylation is statistically significant ([13]; p<0.05 versus H2O2 only, n=3 or 4): ≥ 100 µM
- IC50 [2]: 95 ± 14 µM
- concentration at which LPS-induced IL-8 release is inhibited ([2]; pretreated 1 hr, LPS 100 ng/ml 4 hrs, p<0.05, n=3): ≥ 100 µM
- IC50 [3]: 97 ± 5 µM
- concentration at which LPS-induced TNFα release is inhibited ([3]; pretreated 1 hr, LPS 100 ng/ml 4 hrs, p<0.01, n=3): ≥ 100 µM
- IC50 ([4]; PMA-induced MMP9 expression, U937, NA = inactive): 56 ± 19 µM
- concentration at which PMA-induced MMP9 up-regulation is inhibited ([4]; U937, pretreated 1 hr, PMA 50 ng/ml 48 hrs): ≥ 33 µM
- concentration at which inhibition of MMP9 up-regulation is statistically significant ([4]; p<0.05 versus PMA only, n=3): ≥ 100 µM
